Laboratory results as given in ChEMBL document CHEMBL5244260, “Aldose reductase and protein tyrosine phosphatase 1B inhibitors as a promising therapeutic approach for diabetes mellitus” (Eur J Med Chem, 2020).

What was measured:
[1] = target: Aldo-keto reductase family 1 member B1 (Homo sapiens, UniProt P15121); experiment: Inhibition of ALR2 (unknown origin) using D,L-glyceraldehyde as substrate incubated for 10 mins in presence of NADPH by UV-spectrophotometric assay
[2] = tested on: Mus musculus; experiment: Hypoglycemic activity in alloxan monohydrate induced diabetic model of BALB/c mouse assessed as decrease in glucose level at 10 mg/kg,po measured upto 8 hrs by glucometer; type: functional; parameters: scale not given: the % may be the effect or the level left
[3] = target: T1, Tyrosine-protein phosphatase non-receptor type 1 (Homo sapiens, UniProt P18031); experiment: Inhibition of human recombinant GST-tagged PTP1B (1 to 321 residues) expressed in Escherichia coli using pNPP as substrate by spectrophotometer assay
T1 sequence (P18031 whole entry): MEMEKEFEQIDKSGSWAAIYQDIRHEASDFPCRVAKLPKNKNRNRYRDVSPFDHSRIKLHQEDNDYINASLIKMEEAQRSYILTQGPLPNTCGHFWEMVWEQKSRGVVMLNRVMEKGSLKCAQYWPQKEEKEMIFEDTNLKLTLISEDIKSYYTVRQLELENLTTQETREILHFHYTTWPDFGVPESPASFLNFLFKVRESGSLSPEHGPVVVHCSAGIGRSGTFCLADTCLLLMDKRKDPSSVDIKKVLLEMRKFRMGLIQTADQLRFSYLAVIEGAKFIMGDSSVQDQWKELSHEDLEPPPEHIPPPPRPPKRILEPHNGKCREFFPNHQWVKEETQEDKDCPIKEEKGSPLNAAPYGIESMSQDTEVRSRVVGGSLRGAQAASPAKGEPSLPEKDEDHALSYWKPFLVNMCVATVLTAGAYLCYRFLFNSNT

[4] = target: T1, Tyrosine-protein phosphatase non-receptor type 1; experiment: Inhibition of human recombinant PTP1B using pNPP as substrate incubated for 40 min
[5] = Inhibition of ALR2 in rabbit lens using D,L-glyceraldehyde as substrate preincubated for 1 min in presence of NADPH followed by substrate addition and measured after 4 mins by spectrophotometric assay; type: tissue-based, Oryctolagus cuniculus
[6] = target: Alpha-glucosidase (Saccharomyces cerevisiae S288c, UniProt P53341+P38158+P07265); experiment: Inhibition of yeast alpha-glucosidase using PNP-G as substrate preincubated for 10 mins followed by substrate addition by spectrophotometer microplate reader assay; type: protein assay
[7] = target: T1, Tyrosine-protein phosphatase non-receptor type 1; experiment: Inhibition of human recombinant GST-tagged PTP1B (1 to 321 residues) expressed in Escherichia coli using pNPP as substrate preincubated for 10 mins followed by substrate addition and measured after 30 mins by microplate reader assay
[8] = target: T2, Prostaglandin G/H synthase 2 (Homo sapiens, UniProt P35354); experiment: Inhibition of COX-2 (unknown origin) by spectrophotometer assay
T2 sequence (P35354 whole entry): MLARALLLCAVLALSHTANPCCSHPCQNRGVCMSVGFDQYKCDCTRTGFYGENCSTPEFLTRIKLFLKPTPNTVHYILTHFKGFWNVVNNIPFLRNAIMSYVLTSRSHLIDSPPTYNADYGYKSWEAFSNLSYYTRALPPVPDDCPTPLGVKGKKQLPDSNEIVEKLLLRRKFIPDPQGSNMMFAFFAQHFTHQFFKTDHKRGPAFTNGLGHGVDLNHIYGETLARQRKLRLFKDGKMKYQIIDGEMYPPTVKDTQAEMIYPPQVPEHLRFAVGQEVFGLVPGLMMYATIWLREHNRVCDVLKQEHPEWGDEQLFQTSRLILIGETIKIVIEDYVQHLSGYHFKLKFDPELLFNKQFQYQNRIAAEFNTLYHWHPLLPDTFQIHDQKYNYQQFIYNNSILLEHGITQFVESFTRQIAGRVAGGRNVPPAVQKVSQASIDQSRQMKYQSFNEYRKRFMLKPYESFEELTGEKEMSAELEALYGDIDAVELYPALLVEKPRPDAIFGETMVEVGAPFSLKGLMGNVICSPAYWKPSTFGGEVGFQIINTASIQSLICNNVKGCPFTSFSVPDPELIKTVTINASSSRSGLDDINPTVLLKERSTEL

[9] = target: T1, Tyrosine-protein phosphatase non-receptor type 1; experiment: Inhibition of human PTP1B using pNPP as substrate incubated for 30 min by UV-Visible spectrophotometer assay
[10] = target: T1, Tyrosine-protein phosphatase non-receptor type 1; experiment: Inhibition of PTP1B (unknown origin) using DiFMUP as substrate incubated for 30 min by fluorescence based microplate reader assay
[11] = Inhibition of ALR2 in Wistar rat lens using D,L-glyceraldehyde as substrate preincubated for 1 min in presence of NADPH followed by substrate addition and measured after 4 mins by spectrophotometric assay; type: tissue-based
[12] = target: T3, Peroxisome proliferator-activated receptor gamma (Homo sapiens, UniProt P37231); experiment: Agonist activity at Gal4-PPARgamma (unknown origin) transfected in HCT-116 cells incubated for 24 hrs by luciferase reporter assay; type: cell-based
T3 sequence (P37231 whole entry): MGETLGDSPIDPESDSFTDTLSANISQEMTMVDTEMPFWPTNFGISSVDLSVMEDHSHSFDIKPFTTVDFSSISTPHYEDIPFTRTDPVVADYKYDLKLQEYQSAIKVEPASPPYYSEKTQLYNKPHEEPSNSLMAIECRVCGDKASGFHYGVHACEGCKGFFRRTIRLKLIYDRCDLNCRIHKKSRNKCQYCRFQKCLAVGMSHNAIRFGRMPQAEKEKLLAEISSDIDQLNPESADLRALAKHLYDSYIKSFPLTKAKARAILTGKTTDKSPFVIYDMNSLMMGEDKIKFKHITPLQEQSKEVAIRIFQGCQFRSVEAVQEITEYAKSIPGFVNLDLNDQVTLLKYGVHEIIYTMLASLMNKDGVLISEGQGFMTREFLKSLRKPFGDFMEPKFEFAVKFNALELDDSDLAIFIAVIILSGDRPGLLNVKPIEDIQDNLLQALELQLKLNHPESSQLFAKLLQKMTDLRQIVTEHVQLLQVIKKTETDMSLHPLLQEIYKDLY

[13] = organism: Homo sapiens; experiment: Selectivity ratio of IC50 for PTP1B (unknown origin) to IC50 for TCPTP (unknown origin)
[14] = target: T1, Tyrosine-protein phosphatase non-receptor type 1; experiment: Inhibition of PTP1B (unknown origin) using pNPP as substrate

Question: For O=C1NC(=O)C2(CCCCC2)N1S(=O)(=O)c1ccc(Cl)s1, which IC50 [1] is on record?
Answer: 470 nM

Question: What about the Activity [2] of the same compound?
Answer: 79%

Question: Which IC50 [3] does the source give for O=C1/C(=C/c2ccc(-c3ccccc3)cc2)NC(=S)N1c1ccccc1 here?
Answer: 2900 nM

Question: Which IC50 [4] does the source give for O=C(NCCCN1C[C@@H](O)[C@H](O)[C@H]1CO)c1ccc([N+](=O)[O-])cc1 here?
Answer: 31000 nM

Question: Which IC50 [5] does the source give for O=C(O)Cn1ccc2ccccc21 here?
Answer: 7000 nM

Question: Which IC50 [6] does the source give for CC(=O)c1cc2cc(-c3cccc(Cl)c3)oc2cc1O here?
Answer: 110 nM

Question: And the IC50 [7]?
Answer: 17800 nM

Question: What about the IC50 [8] of the same compound?
Answer: 2810 nM

Question: For C[C@@]12CCC[C@](C)(C(=O)O)[C@H]1CCc1cc(OCC(=O)Oc3ccccc3C(=O)O)ccc12, which IC50 [9] is on record?
Answer: 2900 nM

Question: With O=c1c2cc(O)c(O)cc2oc2cc(OCc3cccc(Cl)c3F)cc(O)c12 as the compound, how does the IC50 [10] read?
Answer: 600 nM

Question: Which results are given for O=C(O)Cn1ccc2cc(OCc3ccccc3)ccc21?
Answer: IC50 [11]: 460 nM; EC50 [12]: > 47400 nM

Question: With O=C(c1ccccc1)C(Cc1ccc2cc(Br)c(C(F)(F)P(=O)(O)O)cc2c1)(c1ccc2cc(C(F)(F)P(=O)(O)O)c(Br)cc2c1)n1nnc2ccccc21 (centres undefined) as the compound, how does the Ratio IC50 [13] read?
Answer: 116

Question: What about the IC50 [14] of the same compound?
Answer: 5 nM
